By inhibition is commonly meant the share of the control response that was lost under treatment.

The source of these data is patent US10179797B2, “Phosphinic peptide derivatives for use as MMP-12 inhibitors” (DSM IP ASSETS B.V., priority 2015, dated 2019).

The target of experiment [1] is T1, MMP-12 (Homo sapiens, UniProt P39900). Briefly: MMP-12 Fluorometric Drug Discovery Kit inhibition assay. In kind it is biochemical. Also noted: purchased Enzo Life Sciences Inc., Farmingdale, N.Y., USA. Conditions: read-out: % Inhibition after 20 min. The text has this:
The MMP-12 inhibitor activity was quantified by fluorometric analysis using the MMP-12 Fluorometric Drug Discovery Kit (Enzo Life Sciences Inc., Farmingdale, N.Y., USA) according to the manufacturers' instructions.
Target sequence in this assay (P39900 106-263 limits assumed): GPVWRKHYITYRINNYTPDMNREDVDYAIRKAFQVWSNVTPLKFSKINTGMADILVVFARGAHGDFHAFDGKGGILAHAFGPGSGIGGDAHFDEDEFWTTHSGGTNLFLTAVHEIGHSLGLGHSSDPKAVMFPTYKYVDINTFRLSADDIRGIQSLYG

A further experiment deals with Human skin. As to the kind of experiment: Total dermal elastin after UV-irradiation of cultured human skin samples. The note with it: concentration 100 [μm]; for Increase vs. untreated-UV: day 6, (Dermal elastin sample − Dermal Elastin UV)/Dermal Elastin UV * 100%; for Dermal elastin: topical twice a day, daily 45 J/cm^2 UVA, day 6, papillary dermis, non-UV treated sample = 100%. On the procedure:
Human skin from abdominal plastic surgery classified as “Intermediate” (ITA° angle=53°) has been used. The skin samples were cut in pieces of approx. 8×3 mm (ø×thickness) and cultured up to day 6 in an air-liquid interface in a perforated ring of stainless steel in contact with a culture medium (modified Williams'E medium), the culture medium was renewed every three days. Eight skin specimens were used for each treatment. Each test sample (4 μl) was topically applied twice a day, immediately after UV irradiation and renewed 4 hours later top of each piece after gentle cleaning of the surface with a cotton pad followed by covering with a 6 ømm delivery membrane, which procedure was repeated daily. The samples were irradiated daily with 800% of the Biological Effective Dose of daylight (BED; Del Bino et al, Pigment Cell research, 19, 2006) equal to a dose of 45 J/cm^2 UVA using an adopted BIO-SUN system (Vilber Lourmat). At day 6 twelve skin sections were immunostained with mouse monoclonal anti-Elastin antibody (Sigma cat#E4013). The papillary dermis is selected for the analysis. The evaluation has been performed by estimating both color intensity and distribution with IMAGE J (NIH) analysis software Two slides of each skin sample have been processed by image acquisition and related analysis (i.e. 12 images for each treatment). The score of the dermal Elastin of the non-UV treated sample was set to 100%.

The target in experiment [2] is T1, MMP-12. As to the kind of experiment: Inhibition of MMP-12 degradation of elastin fibers produced by human dermal fibroblasts. The note with it: MMP-12 200 U/ml, 2 hrs at 37° C. In kind it is cell-based. The method, then:
Human dermal fibroblasts were pre-cultured in DMEM, 10% FCS, 1% P/S for 48 hrs before starving them in DMEM, 0.2% FCS, 1% P/S for 24 hrs. To induce elastin fiber production TGFb1 (10 ng/ml) was added and incubated for 5 days. After incubation with TGFb1, medium was carefully discarded and cells were washed with assay buffer (HBSS, […] HEPES). In the meantime MMP-12 (200 U/ml) and compounds were mixed in assay buffer and allowed to interact for 30 min. This mixture was then added to the cells and incubated for 2 hrs at 37° C.
Cells were then fixed with ice-cold methanol for 5 min and rehydrated by PBS. Unspecific sites were blocked with 1% BSA in PBS for 1 h at room temperature. Elastin fibers were detected using a primary antibody against elastin and the first antibody was detected with AlexaFluor 488 conjugated secondary antibody. Finally, nuclei were counterstained with DAPI. Stained cells were analyzed with the Thermo Scientific ArrayScan XTI Live High Content Platform. 49 pictures per well were acquired with a 20× objective and as readout we used the area covered by the elastin fibers. % of inhibition of elastin fiber degradation was calculated the following way: % protection of elastin fiber network degradation=100−[(max area−min area)/(max area inhibitor area)*100] in which max area=area covered by elastin fibers of untreated control cells min area=area covered by elastin fibers of MMP12 treated cells inhibitor area=area covered by elastin fibers of MMP12 and inhibitor treated cells.
Target sequence in this assay (P39900 106-470, species assumed): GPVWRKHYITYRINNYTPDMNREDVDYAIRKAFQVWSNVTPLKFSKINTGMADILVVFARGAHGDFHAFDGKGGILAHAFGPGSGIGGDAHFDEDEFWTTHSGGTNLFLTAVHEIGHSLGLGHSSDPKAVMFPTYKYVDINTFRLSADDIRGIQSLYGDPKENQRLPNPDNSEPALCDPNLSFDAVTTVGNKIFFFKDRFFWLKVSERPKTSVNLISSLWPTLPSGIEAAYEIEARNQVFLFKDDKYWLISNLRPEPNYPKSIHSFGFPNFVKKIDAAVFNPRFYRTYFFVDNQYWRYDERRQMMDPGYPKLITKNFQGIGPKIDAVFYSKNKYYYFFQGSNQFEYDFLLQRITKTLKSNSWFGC

As for `COC(=O)[C@H](Cc1csc2ccccc12)NC(=O)[C@H](Cc1ccc(-c2ccccc2)cc1)CP(=O)(O)CCc1ccccc1` [(I)-A], at MMP-12 [1], the inhibition at 0.5 µM is 75%, the inhibition at 1 µM worked out at 82% and the inhibition at 10 µM is 92%.

As for `CCC(C)[C@H](NC(=O)[C@H](Cc1ccc(-c2ccccc2)cc1)CP(=O)(O)CCc1ccccc1)C(=O)O` (stereo partly drawn) [(I)-B], at MMP-12 [1], the inhibition at 0.5 µM amounted to 94%, the inhibition at 1 µM came to 94% and the inhibition at 10 µM worked out at 92%.

Regarding `O=C(N[C@@H](Cc1c[nH]c2ccccc12)C(=O)O)[C@H](Cc1ccc(-c2ccccc2)cc1)CP(=O)(O)CCc1ccccc1` [(I)-C], on MMP-12 [1], the inhibition at 0.5 µM amounted to 93%, the inhibition at 1 µM is 94% and the inhibition at 10 µM is 92%.

Turning to `COC(=O)[C@H](CCNC(=O)OC(C)(C)C)NC(=O)[C@@H](Cc1ccc(-c2ccccc2)cc1)CP(=O)(O)CCc1ccccc1` [(I)-D], on MMP-12 [1], the inhibition at 0.5 µM was found to be 85%, the inhibition at 1 µM stood at 90% and the inhibition at 10 µM was found to be 91%.

On to `CC(C)C[C@H](NC(=O)[C@H](Cc1ccc(-c2ccccc2)cc1)CP(=O)(O)CCc1ccccc1)C(=O)OC(C)(C)C` [(I)-F], for which, on MMP-12 [1], the inhibition at 0.5 µM was found to be 73%, the inhibition at 1 µM stood at 82% and the inhibition at 10 µM amounted to 91%.

Consider `O=C(N[C@@H](Cc1ccc2ccccc2c1)C(=O)O)[C@@H](Cc1ccc(-c2ccccc2)cc1)CP(=O)(O)CCc1ccccc1` [(I)-G], for which, on MMP-12 [1], the inhibition at 0.5 µM stood at 78%, the inhibition at 1 µM was determined as 85% and the inhibition at 10 µM was found to be 91%.

With `CCCC[C@H](NC(=O)[C@H](Cc1ccc(-c2ccccc2)cc1)CP(=O)(O)CCc1ccccc1)C(=O)OC` [(I)-H], on MMP-12 [1], the inhibition at 0.5 µM was 83%, the inhibition at 1 µM is 89% and the inhibition at 10 µM turned out to be 91%.

As for `NC(=O)C[C@H](NC(=O)[C@@H](Cc1ccc(-c2ccccc2)cc1)CP(=O)(O)CCc1ccccc1)C(=O)O` [(I)-I], at MMP-12 [1], the inhibition at 0.5 µM came out at 84%, the inhibition at 1 µM is 89% and the inhibition at 10 µM came to 90%.

As to `C[C@H](NC(=O)[C@H](Cc1ccc(-c2ccccc2)cc1)CP(=O)(O)CCc1ccccc1)C(=O)O` [(I)-J], at MMP-12 [1], the inhibition at 0.5 µM turned out to be 93%, the inhibition at 1 µM amounted to 94% and the inhibition at 10 µM was 90%.

In the case of `O=C(N[C@@H](Cc1c[nH]c2ccccc12)C(=O)O)[C@@H](Cc1ccc(-c2ccccc2)cc1)CP(=O)(O)CCc1ccccc1` [(I)-K], at MMP-12 [1], the inhibition at 0.5 µM was determined as 69%, the inhibition at 1 µM is 79% and the inhibition at 10 µM was 90%.

In the case of `O=C(O)CCCNC(=O)C(Cc1ccc(-c2ccccc2)cc1)CP(=O)(O)CCc1ccccc1` (stereo not drawn) [(I)-L], at MMP-12 [1], the inhibition at 0.5 µM worked out at 75%, the inhibition at 1 µM amounted to 82% and the inhibition at 10 µM was 90%.

Turning to `O=C(N[C@@H](Cc1csc2ccccc12)C(=O)O)[C@@H](Cc1ccc(-c2ccccc2)cc1)CP(=O)(O)CCc1ccccc1` [(I)-M], on MMP-12 [1], the inhibition at 0.5 µM stood at 52%, the inhibition at 1 µM is 64% and the inhibition at 10 µM was 89%.

As for `CCCC[C@H](NC(=O)[C@@H](Cc1ccc(-c2ccccc2)cc1)CP(=O)(O)CCc1ccccc1)C(=O)O` [(I)-N], at MMP-12 [1], the inhibition at 10 µM is 89%.

Take `NC(=O)C[C@H](NC(=O)[C@H](Cc1ccc(-c2ccccc2)cc1)CP(=O)(O)CCc1ccccc1)C(=O)O` [(I)-O]: the inhibition at 10 µM on MMP-12 [1] came out at 88%.

Turning to `CC[C@H](NC(=O)[C@H](Cc1ccc(-c2ccccc2)cc1)CP(=O)(O)CCc1ccccc1)C(=O)OC(C)(C)C` [(I)-P], the inhibition at 10 µM at MMP-12 [1] is 88%.

As to `O=C(N[C@@H](Cc1ccc2ccccc2c1)C(=O)OCc1ccccc1)[C@H](Cc1ccc(-c2ccccc2)cc1)CP(=O)(O)CCc1ccccc1` [(I)-Q], the inhibition at 10 µM at MMP-12 [1] was 83%.

Regarding `CC(C)(C)OC(=O)[C@H](Cc1cn(C(=O)OC(C)(C)C)c2ccccc12)NC(=O)C(Cc1ccc(-c2ccccc2)cc1)CP(=O)(O)CCc1ccccc1` (stereo partly drawn) [(I)-R], the inhibition at 10 µM on MMP-12 [1] is 82%.

For `COC(=O)[C@@H](NC(=O)[C@H](Cc1ccc(-c2ccccc2)cc1)CP(=O)(O)CCc1ccccc1)C1CCCCC1` [(I)-S, ((S)-2-([1,1′-biphenyl]-4-ylmethyl)-3-(((S)-1-cyclohexyl-2-methoxy-2-oxoethyl)amino)-3-oxopropyl)(phenethyl)phosphinic acid], at MMP-12 [1], the inhibition at 10 µM amounted to 82%.

Take `CC[C@@H](C)[C@H](NC(=O)[C@@H](Cc1ccc(-c2ccccc2)cc1)CP(=O)(O)CCc1ccccc1)C(=O)OC(C)(C)C` [(I)-T, ((R)-2-([1,1′-biphenyl]-4-ylmethyl)-3-(((2S,3R)-1-(tert-butoxy)-3-methyl-1-oxopentan-2-yl)amino)-3-oxopropyl)(phenethyl)phosphinic acid]: at MMP-12 [1], the inhibition at 10 µM is 75%.

In the case of `CC[C@@H](C)[C@H](NC(=O)[C@H](Cc1ccc(-c2ccccc2)cc1)CP(=O)(O)CCc1ccccc1)C(=O)OC(C)(C)C` [(I)-U, ((S)-2-([1,1′-biphenyl]-4-ylmethyl)-3-(((2S,3R)-1-(tert-butoxy)-3-methyl-1-oxopentan-2-yl)amino)-3-oxopropyl)(phenethyl)phosphinic acid], the inhibition at 10 µM on MMP-12 [1] stood at 72%.

As for `COC(=O)C(C)(C)NC(=O)C(Cc1ccc(-c2ccccc2)cc1)CP(=O)(O)CCc1ccccc1` (stereo not drawn) [(I)-V, (2-([1,1′-biphenyl]-4-ylmethyl)-3-((1-methoxy-2-methyl-1-oxopropan-2-yl)amino)-3-oxopropyl)(phenethyl)phosphinic acid], the inhibition at 10 µM on MMP-12 [1] came out at 61%.

Consider `O=C(NC(Cc1c[nH]c2ccccc12)C(=O)O)C(Cc1ccc(-c2ccccc2)cc1)CP(=O)(O)CCc1ccccc1.O=C(O)C(F)(F)F` (stereo not drawn) [(I)-c, (3-([1,1′-biphenyl]-4-yl)-2-((hydroxy(phenethyl)phosphoryl)methyl)propanoyl)tryptophan compound with 2,2,2-trifluoroacetic acid (1:1)], for which, in the experiment with Human skin, the “Increase vs. untreated-UV” value is “+52%” and the Dermal elastin was found to be 123%.

Take `CCC(C)C(NC(=O)C(Cc1ccc(-c2ccccc2)cc1)CP(=O)(O)CCc1ccccc1)C(=O)O` (stereo not drawn) [(I)-e, 2-(3-([1,1′-biphenyl]-4-yl)-2-((hydroxy(phenethyl)phosphoryl)methyl)propanamido)-3-methylpentanoic acid]: the “% protection of elastin fiber network degradation” value on MMP-12 [2] (0.05 μM) was determined as 12.44%; on MMP-12 [2] (1 μM) it was 68.17%; at MMP-12 [2] (20 μM) it was 83.73%.

Consider `CCCCC(NC(=O)C(Cc1ccc(-c2ccccc2)cc1)CP(=O)(O)CCc1ccccc1)C(=O)O` (stereo not drawn) [(I)-k, 2-(3-([1,1′-biphenyl]-4-yl)-2-((hydroxy(phenethyl)phosphoryl)methyl)propanamido)hexanoic acid], for which, in the experiment with Human skin, the “Increase vs. untreated-UV” value was “+54%” and the Dermal elastin stood at 125%.

`CC(NC(=O)C(Cc1ccc(-c2ccccc2)cc1)CP(=O)(O)CCc1ccccc1)C(=O)O` (stereo not drawn) [(I)-m, (3-([1,1′-biphenyl]-4-yl)-2-((hydroxy(phenethyl)phosphoryl)methyl)propanoyl)alanine]: in the experiment with Human skin, the “Increase vs. untreated-UV” value is given as “+30%” and the Dermal elastin is given as 106%.
